For data set [1], the target named is T1, Rhinovirus 3C protease (RVP) serotype-14 (Human rhinovirus 14, UniProt P03303).
T1 construct: Recombinant Rhinovirus 3C proteases from serotypes 14, 16, 2 or 89 were prepared; made in house
Description: Inhibition of Rhinovirus Protease, serotype 14 (FRET assay). It is filed as biochemical. The settings on record: read-out: kobs/I. The method in brief: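 Recombinant HRV 3C protease (50–100 nM) in 50 mM tris pH 7.6, 1 mM EDTA, 2% DMSO, with ~1 μM DABCYL-GRAVFQGPVG-EDANS FRET substrate; cleavage read as fluorescence increase. Ki: compound and enzyme preincubated 10 min at 30° C before substrate start; kobs/I from enzyme-start progress curves. Values are percent inhibition at stated μM, or Ki.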

The next data set concerns ENT-70. As to the kind of experiment: Enterovirus-70 MRC5 Cell Culture Assay. It is filed as cell-based, Enterovirus strain 70. On the procedure:
(§1) The Echovirus strain 11 (ECHO-11) and Enterovirus strain 70 (ENT-70) were purchased from American Type Culture Collection (ATCC). Virus stocks were propagated and antiviral assays were performed in MRC5 cells (ATCC). Cells were grown in Minimal Essential Medium with 10% fetal bovine serum.
(§2) The ability of compounds to protect cells against ECHO-11 or ENT-70 infection was measured by the XTT dye reduction method. Briefly, MRC5 cells were infected with ECHO-11 or ENT-70 at a multiplicity of infection (m.o.i.) of 0.0013 (ECHO-11) and 0.0017 (ENT-70) or mock-infected with medium only. Infected or uninfected cells were resuspended at 2×10^4 cells per mL and incubated with appropriate concentrations of drug. One day later, XTT/PMS was added to test plates, and the amount of formazan produced was quantified spectrophotometrically at 450/650 nm. The EC50 was calculated as the concentration of drug that increased the percentage of formazan production in drug-treated, virus-infected cells to 50% of that produced by drug-free, uninfected cells. The 50% cytotoxic dose (CC50) was calculated as the concentration of drug that decreased the percentage of formazan produced in drug-treated, uninfected cells to 50% of that produced in drug-free, uninfected cells. The therapeutic index (TI) was calculated by dividing the CC50 by the EC50.

Data set [2] concerns the target T2, Rhinovirus 3C protease (RVP) serotype 16 (Human rhinovirus 16, UniProt Q82122).
T2 construct: Recombinant Rhinovirus 3C proteases from serotypes 14, 16, 2 or 89 were prepared; made in house
Description: Inhibition of Rhinovirus Protease, serotype 16 (FRET assay). It is filed as biochemical. The following applies: enzyme start experiments, read-out: kobs/I. The procedure: Stock solutions (50 mM, in DMSO) of various compounds were prepared; dilutions were in the same solvent. Recombinant Rhinovirus 3C proteases from serotypes 14, 16, 2 or 89 were prepared by the following standard chromatographic procedures: (1) ion exchange using Q Sepharose Fast Flow from Pharmacia; (2) affinity chromatography using Affi-Gel Blue from Biorad; and (3) sizing using Sephadex G-100 from Pharmacia. Assays contained 2% DMSO, 50 mM tris pH 7.6, 1 mM EDTA, a compound at the indicated concentrations, approximately 1 μM substrate, and 50-100 nM protease. For Ki determinations, the compound and the enzyme were preincubated for 10 minutes at 30° C. prior to addition of the substrate (substrate start). The kobs/I values were obtained from reactions initiated by addition of enzyme rather than substrate. RVP activity is measured in the fluorescence resonance energy transfer assay. The substrate was (N-terminal) DABCYL-(Gly-Arg-Ala-Val-Phe-Gln-Gly-Pro-Val-Gly)-EDANS. In the uncleaved peptide, the EDANS fluorescence was quenched by the proximal DABCYL moiety. When the peptide was cleaved, the quenching was relieved, and activity was measured as an increase in fluorescence signal.
In the above table, all data is for RVP serotype-14 unless otherwise noted in parentheses. All strains of human rhinovirus (HRV) were purchased from American Type Culture Collection (ATCC), except for serotype 14, which was produced from the infectious cDNA clone constructed and supplied to us by Dr. Roland Rueckert at the Institute for Molecular Virology, University of Wisconsin, Madison, Wis. The column designated INHIB represents the percent inhibition, with the concentration of the compound in μM indicated in parentheses, unless Ki was assigned as designated by (Ki), at 10 minute preincubation with 50 nM RVP prior to addition of substrate was used. The data in the column designated kobs/I was measured from progress curves in enzyme start experiments.

In another data set the test system is MRC5 cells. Description: in vitro. It is filed as cell-based. On the procedure: as §1, §2
Data set [3] is described as follows: in vitro. It is filed as cell-based. The settings on record: human, mrc5 cells. On the procedure:
as §1, §2

Data set [4] is described as follows: in vitro. It is filed as cell-based. The settings on record: human, hi-hela cells. The method in brief:
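HI-HeLa cells infected with HRV-14 at m.o.i. 0.13 or mock-infected, incubated with compounds for two days; XTT/PMS formazan read at 450/650 nm. EC50 as concentration restoring formazan to 50% of mock-infected level; CC50 from mock-infected cells; TI = CC50/EC50.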

For the next data set, the system named is ECHO-11. Description: Echovirus-11 MRC5 Cell Culture Assay. It is filed as cell-based, Echovirus strain 11. The procedure:
as §1, §2

T2 sequence (Q82122 1511-1693): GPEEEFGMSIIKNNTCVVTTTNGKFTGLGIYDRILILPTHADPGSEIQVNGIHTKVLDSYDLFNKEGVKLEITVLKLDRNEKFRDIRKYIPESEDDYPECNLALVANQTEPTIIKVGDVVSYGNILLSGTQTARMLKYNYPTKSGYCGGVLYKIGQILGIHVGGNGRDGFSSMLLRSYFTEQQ
T1 sequence (P03303 1538-1719): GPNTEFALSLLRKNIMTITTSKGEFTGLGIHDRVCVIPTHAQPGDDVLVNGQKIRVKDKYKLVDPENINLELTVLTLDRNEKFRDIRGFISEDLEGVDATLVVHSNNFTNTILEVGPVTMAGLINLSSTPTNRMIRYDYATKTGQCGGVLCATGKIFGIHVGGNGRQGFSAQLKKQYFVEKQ

Usually EC50 stands for the concentration giving half of the maximal effect. Lower therefore signals higher potency in that assay. As a reminder, the CC50 is the concentration giving 50% cytotoxicity. Higher therefore signals better tolerance by the cells. For the molecule `CCOC(=O)/C=C/[C@H](CCC(N)=O)NC(=O)[C@H](Cc1ccccc1)N(C)C(=O)[C@H](CC(C)C)NC(=O)OCc1ccccc1` [Compound 2, Ethyl-3-(CBZ-L-Leu-L-N-Me-Phe-L-Gln)-E-Propenoate], the kinact/KI was 5300 M⁻¹ s⁻¹ in data set [1] and 1040 M⁻¹ s⁻¹ in data set [2]. Besides, the TI is recorded as 93 in the data set on ENT-70 (CC50/EC50, ENT-70, 1440 min) and 18 with ECHO-11 (CC50/EC50, ECHO-11, 1440 min). Moreover, the EC50 in the data set on ENT-70 (Enterovirus, 24 h, ENT-70 infection of MRC5 cells, XTT, one day) is 0.6 µM; in the data set with ECHO-11 (Echovirus, 24 h, ECHO-11 infection of MRC5 cells, XTT, one day), 3.1 µM. Also, the CC50 with MRC5 cells stood at 56 µM. In the data set “in vitro [3]”, this molecule yielded a half-maximal cytotoxic concentration (CC50) at 24 h of 56 µM. In the data set “in vitro [4]”, this molecule returned a 50% cytotoxic concentration (CC50) at 48 h of 56 µM.

These data come from US5962487A, “Antipicornaviral compounds and methods for their use and preparation” (Agouron Pharmaceuticals, Inc., priority 1997, dated 1999).
